How the values were obtained:
popliteal lymph nodes = experiment: Influx of T-cells and total lymphocytes into draining lymph nodes after foot pad injection; type: in vivo, mice
Experimental: 12 mM R-DOTAP or sucrose as control were injected into the right and eft foot pad respectively of mice and the influx of T-cells and total lymphocytes into the draining lymph nodes were quantified by flow cytometry. In this experiment, 15 hours after vaccination the popliteal lymph nodes were removed and analysis performed. […] Five mice were used per study.

THP-1 cells = experiment: DQ-OVA uptake in human monocyte cell line, confocal microscopy and flow cytometry; type: cell-based; conditions: DQ-OVA 10 μg/ml, R-DOTAP 25 μg/ml, 1 h at 37° C.
Experimental: To determine the effect of cationic lipids on human cells, a human monocyte cell line, THP-1 was used to assess DQ-OVA uptake ex-vivo. THP-1 is representative of human blood derived monocyte cells, the same cells that are used to produce DC from patients in ex vivo DC therapy approaches. THP-1 cells were incubated with DQ-OVA (10 μg/ml) in the presence (A, B) or absence (C, D) of R-DOTAP (25 μg/ml) for 1 h at 37° C. The same cell was imaged using a laser scanning confocal microscope and quantitated by measuring green versus red fluorescence by flow cytometry. […] Another striking observation from FIGS. 6A and B, is the accumulation of processed OVA in endocytic vesicles. It is well known that proteins in endocytic vesicles are efficiently incorporated into MHC class II molecules for stimulating CD4 T cells or shuttled into the cross-presentation pathway for presentation on MHC class I to CD8 T cells. Thus, cationic lipids facilitate protein uptake in a manner which maximally optimizes presentation of antigen onto both MHC class I and class II molecules, resulting in maximal stimulation of CD8 and CD4 T cells respectively.

TC-1 tumors = experiment: Established TC-1 tumor model: tumor microenvironment, tumor volume, ELISPOT; type: in vivo, C57 mice; conditions: Day 19 flow cytometry
Experimental: C57 mice were divided into the following groups of 8 mice per group: R-DOTAP+HPV16 E7 peptide KF18 ([…]) (SEQ ID NO: 4) , GM-CSF+HPV16 E7 peptide KF18, R-DOTAP, GM-C SF, HPV16 E7 peptide KF18, untreated. 1×10^5 TC-1 tumor cells were injected into the flank of the mice on day 0. The various formulations were administered on Days 12 and 19 after tumor implantation. On day 19 4-5 mice per group were sacrificed and a number of evaluations performed to evaluate the immunology of the tumor microenvironment.
RF9 specific dextramer staining and flow cytometry were utilized to quantify the number of HPV-specific CD8+ T-cells that had infiltrated into the tumor micro-environment. The study quantified the number of CD8+ T cells specific to the mouse epitope RF9. These CD8+ T cells were measured as a percentage of all immune cells (CD45, CD3 and CD8) present in the tumor. Antigen specific T cells infiltrating into the tumor were measured using RF9 specific dextramers by flow cytometry. […] Data represents mean±SEM of 4-5 mice in each group.
On Day 19 flow cytometry was used to study the immuno-suppressive tumor microenvironment, specifically the regulatory T cell population. T regulatory cells (CD45+CD3+CD4+CD25+Foxp3+) cells infiltrated into tumors on day 14 and day 19.
Of critical importance to the clinical efficacy of any immunotherapy is the ratio of immune suppressive cells to tumor targeting CD8+ T cells within the tumor microenvironment. A lower ratio of immune suppressor cells to CD8+ T cells promotes improved prognosis for anti-tumor benefit. […] Cationic lipids appear to promote the preferential expansion of the right phenotype of effector T-cells in preference to Tregs.
The various formulations were evaluated for their impact on the established TC-1 tumors in the same study. […] Tumor volumes were measured using calipers. The naïve mice group are tumor bearing mice that remained untreated. The HPV16 E7 peptide used in the vaccine is KF18. […]
In this study, IFN-γ ELISPOT studies were also performed to quantify and understand the “quality” of tumor-specific T-cell generated. […]

Structure (SMILES): CCCCCCCC/C=C\CCCCCCCC(=O)OCC(C[N+](C)(C)C)OC(=O)CCCCCCC/C=C\CCCCCCCC (stereo not shown) [R-DOTAP, 1,2-dioleoyl-3-trimethylammonium propane]
- infiltration of T-cells into the draining lymph node (popliteal lymph nodes; 12 mM R-DOTAP in foot pad, 15 hours after vaccination, versus sucrose): induced significant infiltration of T-cells into the lymph node
- lymphocyte infiltration into the lymph nodes over time (popliteal lymph nodes; 5 hours, 16 hours, 3 days and 4 days): lymphocyte infiltration into the lymph nodes was seen to increase over the 4-day period
- DQ-OVA uptake in THP-1 cells (THP-1 cells): dramatically enhanced the uptake of DQ-OVA in THP-1 cells
- ability to reduce the population of Tregs in tumors (TC-1 tumors): statistical significance was not achieved

Source: patent US11612652B2, “Lipids as synthetic vectors to enhance antigen processing and presentation ex-vivo in dendritic cell therapy” (PDS Biotechnology Corporation, priority 2015, dated 2023)
